Here are results for five substances from patent US7329646B2, “Derivatives of the insulinotropic peptide exendin-4 and methods of production thereof” (Shanghai Huayi Bio-Lab Co., Ltd., priority 2001, dated 2008).

Assay type in all cases: in vivo
For one experiment, the system named is C57 BL/6J mice. Put plainly: Long-term blood glucose buffering with second glucose challenge at 240 minutes in C57 BL/6J mice (Example 5). The settings on record: FIG. 4; for effect on rise in blood glucose levels after the initial glucose injection: overnight-fasted mice, 20% glucose (200 μl) i.p. with simultaneous s.c. GLP-1 1 μg or E4m 0.2 μg; for activity on blood glucose after second glucose challenge at 240 minutes after the first injection: peptide given only at first injection (GLP-1 1 μg, E4m 0.2 μg), glucose measured at 240, 270, 300 minutes. On the procedure: In order to determine the long-term ability of the exendin-4 derivative exendin-4 (Leu14, Lys20, Arg40) to buffer blood glucose levels, experiments were performed in which blood glucose levels in the presence of this exendin-4 derivative were determined at various times after an initial glucose challenge at 0 minutes and then a second glucose challenge at 240 minutes.
Specifically, overnight-fasted C57 BL/6J mice weighing 20 g were injected with a 20% glucose solution (200 μl) intra-peritoneally and simultaneously subcutaneously injected with either a saline control, GLP-1 (1 μg), or exendin-4 (Leu14, Lys20, Arg40) (0.2 μg). Then, at 240 minutes after the initial injection a second injection of 20% glucose solution (200 μl) intra-peritoneally was performed. Blood glucose levels were determined using standard glucose determination kits at 0, 30, 60, 240, 270, and 300 minutes after the first injection.

The subject of a further experiment is db/db diabetic mice. In words: Blood glucose after glucose challenge in db/db diabetic mice (Example 4). The settings on record: 2-hour-fasted db/db mice; 20% glucose (200 μl) i.p. with simultaneous s.c. GLP-1 4 μg, E4m 0.2 μg or Humalog 4 μg; 0-180 minutes; FIG. 3. The method, then:
In order to extend the experimental results obtained in Example 3 with non-diabetic mice, experiments were also conducted to determine the effect on blood glucose levels of db/db diabetic mice of the exendin-4 (Leu14, Lys20, Arg40) peptide derivative relative to GLP-1 and Rapid Insulin.
Specifically, 2-hour-fasted db/db mice weighing 50 g were injected with a 20% glucose solution (200 μl) intra-peritoneally and simultaneously subcutaneously injected with either a saline control, GLP-1 (4 μg), exendin-4 (Leu14, Lys20, Arg40) (“E4m”)(0.2 μg), or the commercially available insulin, Humalog® (Eli Lilly and Company) (4 μg). Blood glucose levels were determined using standard glucose determination kits at 0, 30, 60, 120, and 180 minutes post-injection, and hypoglycemia (%) was calculated relative to the baseline (t=0) blood glucose level of animals receiving saline control.

Experiment [1] concerns non-diabetic C57 BL/6J mice. In words: Blood glucose after glucose challenge in non-diabetic C57 BL/6J mice (Example 3). Particulars: overnight-fasted mice; 20% glucose (200 μl) i.p. with simultaneous s.c. peptide: GLP-1 1 μg, exendin-4 0.2 μg, derivative 0.2 μg; 0, 30, 60, 120 minutes; FIG. 2. On the procedure:
Experiments were conducted to determine the effect on the blood glucose levels of non-diabetic C57 BL/6J mice of the exendin-4 (Leu14, Lys20, Arg40) peptide derivative relative to GLP-1 and the wild-type exendin-4 peptide. Overnight-fasted C57 BL/6J mice weighing 20 g were injected with a 20% glucose solution (200 μl) intra-peritoneally and simultaneously subcutaneously injected with either a saline control, GLP-1 (1 μg), exendin-4 (0.2 μg), or exendin-4 (Leu14, Lys20, Arg40) (0.2 μg). Blood glucose levels were determined using standard glucose determination kits at 0, 30, 60, and 120 minutes post-injection.

A further experiment deals with Healthy C57 BL mice. In words: C-peptide secretion in healthy C57 BL mice, C-peptide radioimmunoassay (Example 8). The settings on record: abdominal injection of 5 μg in 200 μl saline, data not shown. On the procedure: In order to further investigate the insulinotropic properties of the exendin-4 derivative exendin-4 (Lys20, Arg40), experiments were conducted to measure the effect of administration of this compound on the production of C-peptide, which, as discussed previously, is produced in equal amounts as insulin by the cleavage of proinsulin. Healthy C57 BL mice were provided by Shanghai Laboratory Animal Center of Chinese Academy of Sciences. 40% glucose solution, 0.9% sodium chloride solution and exendin-4 (Lys20, Arg40) were used in the experiments. Insulin radioimmunoassay kits and C-peptide radioimmunoassay kits were purchased from Shanghai Institute of Biological Products Ministry of Health.
Healthy C57 BL mice were divided into two groups. 50 μl of blood sample was taken from plexus venosus of the eye using a scaled capillary, the inner wall of which was rinsed with 1 mg/mL heparin and was air-dried beforehand. Mice in two groups were abdominally injected with 200 μl normal saline alone, or with a similar amount of saline containing 5 μg of exendin-4 (Lys20, Arg40), respectively at t=0. […] The C-peptide concentration in each sample was determined by following the method described by the radioimmunoassay kit, and the stimulating effect of exendin-4 (Lys20, Arg40) on C-peptide secretion was determined.

Experiment [2] relates to NOD mice. In words: Insulin secretion in NOD mice, insulin radioimmunoassay (Example 7). The settings on record: abdominal injection of 5 μg in 200 μl saline, 5, 10, 20, 30 min, data not shown. On the procedure: In order to determine whether the ability of the exendin-4 derivative exendin-4 (Lys20, Arg40) to decrease blood glucose in NOD mice is an insulinotropic effect, experiments were conducted to measure the effect of administration of this compound on insulin levels. In these experiments, NOD mice were provided by Shanghai Laboratory Animal Center of Chinese Academy of Sciences. 40% glucose solution, 0.9% sodium chloride solution, and exendin-4 (Lys20, Arg40) were used in the experiment. Insulin radioimmunoassay kits were purchased from Shanghai Institute of Biological Products Ministry of Health.
NOD mice were divided into two groups. 50 μl of blood sample was taken from the plexus venosus of the eye using a scaled capillary, the inner wall of which was rinsed with 1 mg/mL heparin and was air-dried beforehand. Mice in the two groups were abdominally injected with either 200 μl normal saline alone, or with a similar amount of saline containing 5 μg exendin-4 (Lys20, Arg40), respectively at t=0. Different blood samples were taken as described above at 5 min, 10 min, 20 min and 30 min. […] Insulin concentrations of different samples were determined by following the methods described in the radioimmunoassay kit, and the stimulating effect of exendin-4 (Lys20, Arg40) on insulin secretion was determined.

The test system of experiment [3] is NOD mice. Put plainly: Blood glucose after glucose challenge in NOD mice (Example 6). The settings on record: overnight-fasted NOD mice. On the procedure: Experiments to determine the effects on blood glucose levels of the exendin-4 derivative exendin-4 (Lys20, Arg40) were conducted in NOD mice provided by the Shanghai Laboratory Animal Center of Chinese Academy of Sciences. 0.9% sodium chloride solution and exendin-4 (Lys20, Arg40) were used in the assay. Plasma glucose testing kits were purchased from Shanghai Institute of Biological Products Ministry of Health.
Overnight-fasted NOD mice were divided into two groups. Mice in the first group were abdominally injected with 200 μl of a solution containing 40% glucose and 1 μg of exendin-4 (Lys20, Arg40). Mice in the second (control) group […] with a glucose solution.
30 μl of blood sample was taken from retro-orbital zeinous sinus immediately using a scaled capillary which was treated beforehand with heparin, placed into 300 μl of normal saline and mixed with the saline. Erythrocytes were removed by centrifugation at 3,000 rpm, while blood serum was kept for glucose determination. Different blood samples were taken as described above at 30 min, 60 min and 120 min, and blood serum was separated. Glucose concentrations of three plasma samples were determined according to the method described in the testing kits, and the decreasing effect of exendin-4 (Lys20, Arg40) on blood glucose concentration was determined.

Consider exendin-4 (Leu14, Lys20, Arg40), for which, in the experiment with C57 BL/6J mice, the “effect on rise in blood glucose levels after the initial glucose injection” value is listed as “essentially eliminated” and the “activity on blood glucose after second glucose challenge at 240 minutes after the first injection” value is on record as “activity at times of 240 or more minutes after first injection is preserved”. In the experiment with db/db diabetic mice, the “effect on blood glucose levels after glucose challenge” value (“effect on blood glucose levels” for short) is listed as “resulted in the buffering of changes in blood glucose levels”. The “effect on blood glucose levels” value in experiment [1] is given as “produced a response profile virtually identical to that seen with the wild-type exendin-4 sequence”.
Consider exendin-4 (Lys20, Arg40), for which the “stimulating effect on C-peptide secretion” value with Healthy C57 BL mice is “significantly stimulates the secretion of C-peptide relative to the control”. In addition, in the experiment on NOD mice [2], the “stimulating effect on insulin secretion” value is “significantly stimulates insulin secretion”. For the same substance, the “time after administration up to which dramatic fluctuations in glucose concentration are prevented” value with NOD mice [3] (200 μl 40% glucose with 1 μg peptide, abdominal injection) is listed as “at least 2 hours”. The “blood glucose concentration after glucose challenge” value with NOD mice [3] (abdominal injection of 200 μl 40% glucose with 1 μg peptide, 30, 60, 120 min, data not shown) was “never showed a notable increase in blood glucose”.
Regarding exendin-4 [wild-type exendin-4], in experiment [1], the “effect on blood glucose levels” value is given as “acted to buffer changes in blood glucose levels”.
“Humalog®: commercially available insulin, Humalog® (Eli Lilly and Company)”: the “effect on blood glucose levels” value in the experiment with db/db diabetic mice was “resulted in the buffering of changes in blood glucose levels”.
With “Glucagon-like peptide-1 (HAEGTFTSDVSSYLEGQAAKEFIAWLVKGR; listed as Homo sapiens) [GLP-1, peptide hormone secreted by intestinal cells that enhances insulin secretion, reference compound]”, in the experiment on C57 BL/6J mice, the “effect on rise in blood glucose levels after the initial glucose injection” value is on record as “drastically reduced” and the “activity on blood glucose after second glucose challenge at 240 minutes after the first injection” value is “GLP-1 activity is essentially abolished”. Further, in the experiment on db/db diabetic mice, the “effect on blood glucose levels” value was “resulted in the buffering of changes in blood glucose levels”. Also, in experiment [1], the “effect on blood glucose levels” value is recorded as “acted to buffer changes in blood glucose levels”.
